Measurements taken from patent US5514773A, “Depsipeptide derivatives, production thereof and use thereof” (Fujisawa Pharmaceutical Co., Ltd., priority 1992, dated 1996).

Key:
Assay type in all cases: in vivo
[1] = system: Nippostrongylus brasilienses; assay: Test 1: reduction of Nippostrongylus brasilienses in infected rats, oral administration; settings: Wistar rats, oral on 7th, 8th and 9th day after infection, parasites in small intestines counted on 11th day
Procedure: (§1) The effect of parasiticides was examined with the rats which was infected by nematodes which are parasitic on rats, Nippostrongylus brasilienses.
(§2) Wistar strain rats (female 6 weeks old, 120-130 g weight) were […] by infecting them and giving them subcutaneous injections of 3000 infective larvae per rat.
(§3) Test compound of 50 mg was dissolved in 0.25 ml dimethylsulfoxide, 0.5% methylcellulose solution was added, and liquid volume was adjusted to be prescribed volume of 100, 10, 5, 2.5, 1.25, 1.0, 0.63, 0.32 mg/kg to utilize. After they were infected, on each 7th, 8th, and 9th day, the test compound was administered orally with above concentration. On the 11th day, the rat was dissected and the numbers of parasites in the small intestines were measured.
The given measurement was based to calculate the reduction rate from the percentage of the numbers of the parasites of unadministered rats (control). The result of it is shown in the […]

[2] = system: Nippostrongylus brasilienses; assay: Test 2: reduction of Nippostrongylus brasilienses in infected rats, subcutaneous administration; settings: Wistar rats, otherwise as Test 1
Procedure: as §1, §2, §3
The given measurement was based to calculate the reduction rate from the percentage of the numbers of the parasites of unadministered rats (control). The result of it is shown in the
The reduction rate was calculated in a similar manner as Test 1 except when the test compound was subcutaneously administered to the rats instead of oral administration as in Test 1.

[3] = system: Strongyloides venezuelensis; assay: Test 3: Strongyloides venezuelensis in infected Mongolian gerbils, eggs in feces and worms recovered; settings: oral once 20 mg/kg, group mean
From the text: For 1 rat, the 5000 infective larvae of Strongyloides venezuelensis were infected percutaneously to one group (2 rats) of 8 weeks old Mongolian gerbils. On the 10th day after they were infected, the suspended test compound was orally administered once with the amount of established administration. The effect was judged according to the amount of the eggs in the feces or the numbers of worms in the intestinal tract. The measurement of the numbers of the eggs were taken from O ring method, and the numbers of the eggs (EPG) in 1 g of feces were counted on the day before, on the day, and on the 1st, 2nd, 3rd, and 4th day after the administration. The numbers of the parasites were measured by dissecting Mongolian gerbils the 4th day after the administration (on the 14th day after infection). The method of measurement was followed by releasing the parasites, which live in the small intestines, into saline solution over night, and the released parasites were set to be as numbers of worms recovered.

**Q.** With CC(C)C[C@H]1C(=O)O[C@H](Cc2ccccc2)C(=O)N(C)[C@@H](CC(C)C)C(=O)O[C@H](C)C(=O)N(C)[C@@H](CC(C)C)C(=O)O[C@H](Cc2ccccc2)C(=O)N(C)[C@@H](CC(C)C)C(=O)O[C@H](C)C(=O)N1C [PF1022] as the molecule, how does the “Minimum Amount of Administration indicated by more than 95% of Reduction Rate” value [1] read?
**A.** The value was 10 mg/kg.

**Q.** What about the “Minimum Amount of Administration indicated by more than 95% of Reduction Rate” value [2] of the same molecule?
**A.** Its value is > 100 mg/kg.

**Q.** And the “Change in Numbers of Parasites' Number of Eggs in Feces (EPG/100)” value (shortened to “Change in Numbers”) ([3]; day 0 (starting day of administration))?
**A.** The value was 1615 EPG/100.

**Q.** And the “Change in Numbers” value ([3]; day 1 after administration)?
**A.** Its value is 581 EPG/100.

**Q.** What about the “Change in Numbers” value ([3]; day 2 after administration) of the same molecule?
**A.** The value was 1563 EPG/100.

**Q.** What about the “Change in Numbers” value ([3]; day 3 after administration) of the same molecule?
**A.** Its value is 935 EPG/100.

**Q.** And the “Change in Numbers” value ([3]; day 4 after administration)?
**A.** Its value is 1005 EPG/100.

**Q.** And the “Change in Numbers” value ([3]; day -2 (before administration))?
**A.** Its value is 332 EPG/100.

**Q.** And the “Numbers of the Worms recovered” value ([3]; dissected 4th day after administration)?
**A.** The value was 3088.
